Reference: patent publication US8980323B2, “Hydrophilic matrix containing poorly water-soluble compound and method for producing the same” (FUJIFILM Corporation, priority 2006, dated 2015)
In brackets after ≈: the same amount, converted by molar mass. Where two headings read alike, the source gives them in different places.

Key:
[1] = Solubility in 1,1,1,3,3,3-hexafluoro-2-propanol (HFIP); conditions: for solubility: 1,1,1,3,3,3-hexafluoro-2-propanol (HFIP), organic solvent or mixture, thermodynamic from solid
Protocol: The solubility in hexafluoroisopropanol is determined as described below according to the present invention. A mixture is prepared by adding a compound to 1,1,1-3,3,3-hexafluoro-2-propanol while changing the concentration of the compound in a stepwise manner, and the concentration at which precipitation takes place is examined. Thus, the solubility of the compound in 1,1,1-3,3,3-hexafluoro-2-propanol is determined. In addition, a soluble/insoluble state is determined by confirming the presence of a deposit after centrifugation of the above mixture with a micro centrifuge (Chibitan II XX42CF00T produced by Tech-Jam) for 20 seconds.

[2] = Stereo-microscopic observation of drug-containing hydrophilic matrix films and gels (finely-dispersed state / precipitation); type: physicochemical; parameters: key: ∘: contained in a finely-dispersed state; Δ: partially precipitated; conditions: gelatin film cast from HFIP, stereo microscope; for State of drug in gelatin film, Drug/gelatin mass proportion 0.1%: drug/gelatin 0.1%; for State of drug in gelatin film, Drug/gelatin mass proportion 1.0%: drug/gelatin 1.0%; for State of drug in gelatin film, Drug/gelatin mass proportion 5.0%: drug/gelatin 5.0%
Protocol: The term “in a finely-dispersed state” used herein refers to a condition in which the contained poorly water-soluble drug, which is a compound of a size that cannot be detected with a stereo microscope (MZ16A produced by Leica), is uniformly dispersed in a matrix, or a condition in which such a drug is in a molecular dispersion state in a matrix.
Paclitaxel (produced by LCL laboratories) was used as a poorly water-soluble compound. […] 1,1,1,3,3,3-hexafluoro-2-propanol solution (HFIP; 200 μL) containing paclitaxel (1 mg/mL) and gelatin (100 mg/mL; PSK gelatin produced by Nippi Inc.) was coated on a polypropylene dish (2 cm×2 cm×500 μm), followed by drying at an ordinary temperature for 15 hours. Thus, a paclitaxel-containing gelatin film was produced.
Upon observation with a stereo microscope (produced by Leica, MZ16A), precipitation of paclitaxel was not observed. […] In addition, the gel produced with HFIP and subjected to crosslinking with transglutaminase and water swelling was transparent.
Observation was carried out in the same manner as in Example 2.
Drug-containing gelatin films were produced in the same manner as in Example 1 except that paclitaxel used in Example 1 was replaced by drugs with concentrations listed in Table 1 below. Observation was carried out in the same manner as in Example 2. […]

[3] = upper dissolution limit - lower precipitation limit, samples at 30, 50, 100, 200, 500 mg/ml

solubility [1] [mg/mL]	State of drug in gelatin film, Drug/gelatin mass proportion 0.1% [2]	State of drug in gelatin film, Drug/gelatin mass proportion 1.0% [2]	State of drug in gelatin film, Drug/gelatin mass proportion 5.0% [2]	Solubility in HFIP [1] [mg/mL]	Structure (SMILES)	Solubility in HFIP [1, 3] [mg/mL]
200 to 500 (≈ 1110 to 2780 mM)	∘	∘	∘	–	CC(=O)Oc1ccccc1C(=O)O [Aspirin]	–
200 to 500 (≈ 1200 to 3010 mM)	∘	∘	∘	–	CC12CCC(C(=O)C1=O)C2(C)C (centres unmarked) [Camphorquinone]	–
–	∘	Precipitated	Precipitated	30 to 50	CCN(CC)c1ccc2cc(-c3nc4ccccc4s3)c(=O)oc2c1 [Coumarin 6]	–
100 to 200 (≈ 124 to 248 mM)	∘	∘	∘	–	CC(=O)O[C@@]12CO[C@@H]1C[C@H](O)[C@@]1(C)C(=O)[C@H](O)C3=C(C)[C@@H](OC(=O)[C@H](O)[C@@H](NC(=O)OC(C)(C)C)c4ccccc4)C[C@@](O)([C@@H](OC(=O)c4ccccc4)[C@H]21)C3(C)C [Docetaxel]	–
200 to 500 (≈ 234 to 586 mM)	∘	∘	∘	–	CC(=O)O[C@H]1C(=O)[C@@]2(C)[C@H]([C@H](OC(=O)c3ccccc3)[C@]3(O)C[C@H](OC(=O)[C@H](O)[C@@H](NC(=O)c4ccccc4)c4ccccc4)C(C)=C1C3(C)C)[C@]1(OC(C)=O)CO[C@@H]1C[C@@H]2O [Paclitaxel]	200 to 500
50 to 100 (≈ 198 to 396 mM)	∘	∘	Precipitated	–	O=C1NC(=O)C(c2ccccc2)(c2ccccc2)N1 [Phenytoin]	–
200 to 500 (≈ 219 to 547 mM)	–	–	–	–	CO[C@H]1C[C@@H]2CC[C@@H](C)[C@@](O)(O2)C(=O)C(=O)N2CCCC[C@H]2C(=O)O[C@H]([C@H](C)C[C@@H]2CC[C@@H](O)[C@H](OC)C2)CC(=O)[C@H](C)/C=C(\C)[C@@H](O)[C@@H](OC)C(=O)[C@H](C)C[C@H](C)/C=C/C=C/C=C/1C [Rapamycin]	–

Structure (SMILES)	solubility [1] [mg/mL]	State of drug in gelatin film, Drug/gelatin mass proportion 0.1% [2]	State of drug in gelatin film, Drug/gelatin mass proportion 1.0% [2]	State of drug in gelatin film, Drug/gelatin mass proportion 5.0% [2]	Solubility in HFIP [1] [mg/mL]	Solubility in HFIP [1, 3] [mg/mL]
CCN(CC)c1ccc2c(C)cc(=O)oc2c1 [Coumarin 1]	–	∘	∘	∘	–	200 to 500
CN(C)c1ccc(N=Nc2ccccc2)cc1 [Methyl yellow]	–	∘	∘	Precipitated	–	50 to 100
C=C1CC[C@H](O)C/C1=C/C=C1\CCC[C@]2(C)[C@@H]([C@H](C)CCCC(C)C)CC[C@@H]12 [Vitamin D3]	–	∘	∘	∘	–	200 to 500
